# Data reported in US20230382916A1, “HETEROARYL HETEROCYCLIC COMPOUNDS AND USES THEREOF” (HUTCHISON MEDIPHARMA LIMITED, priority 2020, published 2023).
# Key:
# [1] = test system: anti-IgD antibody-induced B cell activation in mice whole blood; assay: In vivo efficacy of the inhibitory effect on BTK target: anti-IgD antibody-induced B cell activation in mice whole blood after oral dosing; parameters: species or system mouse; conditions: 20 mg/kg oral single dose, 16 h
# Procedure: Objects: B cells in mice whole blood were induced and activated by the anti-IgD antibody, and the inhibitory effect of the compound of the present invention on B cell activation in vivo was studied, so as to determine the inhibitory effect of the compound of the present invention on the BTK target in vivo.
# Methods: C57BL/6 mice (female, 18-20 g, purchased from Shanghai Lingchang Biotechnology Co., Ltd.) were grouped according to Table 1.
# The animals of each group were administered, then were placed in CO2 for anesthesia at designated time points, blood samples were taken from […] via retro-orbital bleeding, and heparin was used for anticoagulation; 90 μL of whole blood was taken from mice of each group, and added to a 96 well culture plate, and anti-mouse IgD antibody (BIO-RAD, Cat #MCA4693) was added to each well to a final concentration of […] (respectively for each drug-treated group and anti-IgD antibody-inducted vehicle group); in addition, 90 μL of whole blood of mice in the vehicle group was taken and added to the 96-well culture plate, and PBS (phosphate buffer, GIBCO, Cat #C20012500BT) was added to each well to a final concentration of 0.01 μg/L (namely, the vehicle control group); Each group was mixed well and incubated in a 37° C./5% CO2 incubator for 4 hours. In addition, the blood of mice in the drug-treated group was centrifuged to separate plasma for blood concentration analysis.
# B cell activation ratio=percentage of CD69^+CD19^+ double positive B cells/percentage of CD19^+ single positive B cells
# Inhibition ratio=(percentage of B cell activation ratio in anti-IgD antibody-induced vehicle group−percentage of B cell activation ratio in drug-treated group)/(percentage of B cell activation ratio in anti-IgD antibody−induced vehicle group-percentage of B cell activation ratio in vehicle control group)×100%
# All data are represented by mean±standard error. For the comparison between each drug-treated group and the anti-IgD antibody-induced vehicle group, p value was calculated by Graphpad Prism using one-way ANOVA analysis of variance and Dunnett's test, and for the comparison between each drug-treated group, p value was calculated by using unpaired t test.
# [2] = target: BTK recombinant protein (Homo sapiens (Human), UniProt Q06187); assay: Determination of biochemical BTK (Z'-LYTE kinase assay); conditions: 32 μM ATP
# Sequence of BTK recombinant protein (Q06187 whole entry): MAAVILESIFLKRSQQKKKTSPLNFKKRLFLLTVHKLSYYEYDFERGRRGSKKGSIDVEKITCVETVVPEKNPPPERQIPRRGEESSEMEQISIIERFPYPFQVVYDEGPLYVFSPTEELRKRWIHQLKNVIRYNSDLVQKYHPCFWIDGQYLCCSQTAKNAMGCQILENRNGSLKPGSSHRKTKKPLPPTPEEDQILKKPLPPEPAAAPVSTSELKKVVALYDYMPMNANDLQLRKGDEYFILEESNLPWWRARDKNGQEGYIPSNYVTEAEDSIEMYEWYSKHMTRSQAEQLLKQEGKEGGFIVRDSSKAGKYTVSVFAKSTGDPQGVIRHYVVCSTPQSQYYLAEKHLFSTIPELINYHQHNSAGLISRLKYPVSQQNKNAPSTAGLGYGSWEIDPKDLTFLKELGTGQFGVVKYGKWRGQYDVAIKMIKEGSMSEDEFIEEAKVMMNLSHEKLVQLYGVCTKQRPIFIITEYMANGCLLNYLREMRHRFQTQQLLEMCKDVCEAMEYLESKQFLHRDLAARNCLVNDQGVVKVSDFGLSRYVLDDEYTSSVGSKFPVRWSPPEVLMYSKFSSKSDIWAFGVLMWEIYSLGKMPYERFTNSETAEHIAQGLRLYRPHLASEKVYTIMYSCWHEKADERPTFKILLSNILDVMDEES
# Text: BTK recombinant protein: Invitrogen, Cat #PV3363;
# Z′-LYTE® kinase test kit-tyrosine 1 peptide: Invitrogen, Cat #PV3190;
# Z′-LYTE® biochemical assay employs a fluorescence resonance energy transfer (FRET)-based, coupled-enzyme format and is based on the differential sensitivity of phosphorylated and non-phosphorylated peptides to proteolytic cleavage. Both ends of the short peptide substrate are labeled with two fluorescent groups to form a FRET paired combination. In the primary reaction (the Kinase Reaction), the kinase transfers the γ-phosphate of ATP to a single […] residue on the short peptide substrate. In the secondary reaction (the development reaction), the non-phosphorylated short peptides were recognized and cleaved by a site-specific protease (the development reagent). Phosphorylated short peptides can resist such cleavage. Cleavage of short peptides can disrupt the donor (such as coumarin) and receptor fluorophores (fluorescein) on the short peptides, while the phosphorylated short peptides can maintain FRET. The calculation method of the ratio is as follows, and the ratio of the respective emission signals generated by the donor fluorophores emitted (after excitation at 400 nm) to the receptors is calculated. Emission signal ratio=emitted light by coumarin (445 nm)/emitted light by fluorescein (520 nm). If the FRET short peptide is phosphorylated (such as no kinase inhibitor), the emitted light ratio will remain in a lower level. If the FRET short peptide is non-phosphorylated (such as kinase inhibitor), the emitted light ratio will be in a higher level. In this way, the inhibitory effects of different compound inhibitors on BTK kinase activity would be distinguished.
# The experiment was carried out according to the instructions of the Z′-LYTE® kinase test kit-tyrosine 1 peptide. Reagent preparation: 1.33× kinase buffer: 5× kinase buffer was diluted with water to 1.33× kinase buffer; an enzyme solution: the kinase was dissolved in 1.33× kinase buffer with the final working concentration being 3.32 nM; a short peptide solution: a short peptide stock solution (1 mM dissolved in DMSO) was dissolved in 1.33× kinase buffer with the final working concentration being 2 μM; Z′-LYTE Tyr01 phosphorylated short peptide solution, 0.6 μl of stock solution (1 mM dissolved in DMSO) was dissolved in 149.4 μl of 1.33× kinase buffer; an ATP solution: an ATP stock solution (10 mM aqueous solution) was dissolved in 1.33× kinase buffer with the final working concentration being 32 μM; a color-developing solution: color-developing solution B was dissolved in color-developing buffer with the final working concentration being 1× color-developing solution; 4× compound preparation: the compound was diluted in 3-fold gradient concentration to finally obtain 4% DMSO aqueous solution containing different concentrations of the compound, with the final working concentration being 3000, 1000, 333.33, 111.11, 37.04, 12.35, 4.12, 1.37 nM, 8 concentration points in total.
# Specific steps of the experiment: In the experiment, there were three control groups, each with 8 replicate wells, which were C1 100% inhibition group (no ATP), C2 0% inhibition group (with ATP), and C3 100% phosphorylation group, respectively. 2.5 μl of serially diluted compound was added to each well of a 384-well plate, with double replicate wells, and 4% DMSO solution was added to wells C1, C2, and C3. After that, except for wells C3, 2.5 μl of BTK enzyme solution was added to each remaining well, which was left to stand at 4° C. for 30 minutes. After that, except for wells C3, 2.5 μl of short peptide solution was added to each well, and 5 μl of phosphorylated short peptide solution was added to each of wells C3. 2.5 μl of 1.33× kinase buffer was added to each of wells C1 and C3, and 2.5 μl of ATP solution was added to each of the remaining wells. The wells were centrifuged transiently, and the plate was shaken at 1000 rpm for 30 seconds to perform transient centrifuge. […]
# [3] = Stability test in liver microsomes (mouse); type: in vitro ADME; conditions: mouse liver microsomes 0.5 mg/mL, 1 μM compound
# Procedure: (§1) Both male CD-1 mouse pooled liver microsomes and male SD rat pooled liver microsomes were purchased from BioreclamationIVT Corporation, USA.
# (§2) The test compound stock solution was diluted with an organic solvent (usually a mixture of acetonitrile, methanol and water with various ratios, depending on the solubility of the compound, if necessary, 1 N hydrochloric acid or 1 N sodium hydroxide would be added to facilitate solubilization) to the 0.1 mM (the final concentration of the compound in the reaction system was 1 μM) and the concentration percentage of the organic solvents in the incubation system no more than 1% (wherein the percentage of DMSO was required to be no more than 0.1%). An appropriate amount of 100 mM NADP, 500 mM G-6-P and 100 Unit/mL G-6-PDH were mixed and diluted with ultrapure water (the final system contains 1 mM NADP, 5 mM G-6-P and 1 Unit/mL G-6-PDH), pre-incubated in a 37° C. water bath for 10 minutes and then placed on ice for use as a NADPH regeneration solution. 20 mg/mL liver microsomes solution and 200 mM phosphate buffer were mixed, and diluted with ultrapure water to give a liver microsomes solution containing 2.5 mg/mL liver microsomes (the final concentration of the reaction system is 0.5 mg/mL) and 50 mM phosphate buffer. The diluted liver microsomes solution was mixed with 0.1 mM compound solution, a mixture of 100 mM EDTA, 300 mM MgCl2 solution, 200 mM phosphate buffer (the final system was 3 mM MgCl2, 1 mM EDTA and 50 mM phosphate buffer) and water in an appropriate volume was added. Finally, the NADPH regeneration solution was added, then the reaction solution was placed in a 37° C. water bath to start the reaction (the reaction time was 30 minutes), and the reaction was stopped by adding the ice-cold acetonitrile reaction stopping solution containing the internal standard. The 0-minute sample was not incubated in a 37° C. water bath, and its difference from the 30-minute sample further lies in that the ice-cold acetonitrile reaction stopping solution containing the internal standard was added first, and then the NADPH regeneration solution was added. The sample added with the reaction stopping internal standard solution was vortexed and mixed well, and then centrifuged at 4400 rpm for 10 minutes. The supernatant was taken and diluted ten times with 50% methanol for LC-MS/MS analysis.
# (§3) LC-MS/MS was used to determine the concentration of the compound in the sample. The percentage of the remaining compound after 30 minutes of incubation comparing with that in the 0-minute sample was calculated using the peak area ratio of the compound to the internal standard as an indicator, to evaluate the metabolic stability of the compound.
# [4] = Stability test in liver microsomes (rat); type: in vitro ADME; conditions: rat liver microsomes 0.5 mg/mL, 1 μM compound
# Procedure: as §1, §2, §3
smiles,measurement,setting,value
C[C@@H]1CN(C2COC2)C[C@H](C)N1c1ccc(Nc2cc(-c3ccnc(-n4ccn5c6c(cc5c4=O)CC(C)(C)C6)c3CO)cn(C)c2=O)nc1 [Compound 2],Inhibition ratio (%) on B cell activation,[1],43%
same,B cell activation ratio (the population of activated B cells in total B cells),[1]; mean ± standard error,20.6 ± 5.0
same,Inhibition ratio (%) on B cell activation,[1]; listed as compound 2,43%
same,IC50,[2],7 nM
same,"MLM, percentage of the remaining compound after 30 minutes of incubation",[3],92.6%
same,"RLM, percentage of the remaining compound after 30 minutes of incubation",[4],85.7%
